Experimental findings from patent US7776848B2, “Spirocyclic cyclohexane compounds” (Gruenenthal GmbH, priority 2004, dated 2010) are described below.

Counter-ions that a name gives are not always drawn.

In assay [1] the target is T1, NA uptake (noradrenaline reuptake), synaptosomes from hypothalamus of male rat brains (Rattus norvegicus, UniProt Q63380).
T1 construct: synaptosomes are freshly isolated from areas of rat brain; from tissue; host or cells: synaptosomes (P2 fraction) from hypothalamus of male rat brains
The assay is described as follows: Noradrenaline reuptake inhibition (NA uptake inhibition) in rat brain synaptosomes. It counts as biochemical. How it is done: b) Studies of Noradrenaline Reuptake Inhibition (NA Uptake Inhibition)
In order to be able to carry out these in vitro studies, synaptosomes are freshly isolated from areas of rat brain. A so-called “P2” fraction is used in each case, which is prepared according to the procedure of Gray and Whittaker (E. G. Gray and V. P. Whittaker (1962) J. Anat. 76, 79-88). For NA uptake, these vesicular particles are isolated from the hypothalamus of male rat brains. A detailed description of the method can be found in the literature (M. Ch. Frink, H.-H. Hennies, W. Englberger, M. Haurand and B. Wilffert (1996) Arzneim.-Forsch./Drug Res. 46 (III), 11, 1029-1036).

For assay [2], the target named is T2, 5HT uptake (serotonin reuptake), synaptosomes from hypothalamus of male rat brains (Rattus norvegicus, UniProt P31652).
T2 construct: synaptosomes are freshly isolated from areas of rat brain; from tissue; host or cells: synaptosomes (P2 fraction) from hypothalamus of male rat brains
The assay is described as follows: Serotonin reuptake inhibition (5HT uptake inhibition) in rat brain synaptosomes. The class given is biochemical. The procedure: Biological Testing a) Studies of Serotonin Reuptake Inhibition (5HT Uptake Inhibition)
In order to be able to carry out these in vitro studies, synaptosomes are freshly isolated from areas of rat brain. A so-called “P2” fraction is used in each case, which is prepared according to the procedure of Gray and Whittaker (E. G. Gray and V. P. Whittaker (1962) J. Anat. 76, 79-88). For 5HT uptake, these vesicular particles are isolated from the hypothalamus of male rat brains. A detailed description of the method can be found in the literature (M. Ch. Frink, H.-H. Hennies, W. Englberger, M. Haurand and B. Wilffert (1996) Arzneim.-Forsch./Drug Res. 46 (III), 11, 1029-1036).

T2 sequence (P31652 whole entry): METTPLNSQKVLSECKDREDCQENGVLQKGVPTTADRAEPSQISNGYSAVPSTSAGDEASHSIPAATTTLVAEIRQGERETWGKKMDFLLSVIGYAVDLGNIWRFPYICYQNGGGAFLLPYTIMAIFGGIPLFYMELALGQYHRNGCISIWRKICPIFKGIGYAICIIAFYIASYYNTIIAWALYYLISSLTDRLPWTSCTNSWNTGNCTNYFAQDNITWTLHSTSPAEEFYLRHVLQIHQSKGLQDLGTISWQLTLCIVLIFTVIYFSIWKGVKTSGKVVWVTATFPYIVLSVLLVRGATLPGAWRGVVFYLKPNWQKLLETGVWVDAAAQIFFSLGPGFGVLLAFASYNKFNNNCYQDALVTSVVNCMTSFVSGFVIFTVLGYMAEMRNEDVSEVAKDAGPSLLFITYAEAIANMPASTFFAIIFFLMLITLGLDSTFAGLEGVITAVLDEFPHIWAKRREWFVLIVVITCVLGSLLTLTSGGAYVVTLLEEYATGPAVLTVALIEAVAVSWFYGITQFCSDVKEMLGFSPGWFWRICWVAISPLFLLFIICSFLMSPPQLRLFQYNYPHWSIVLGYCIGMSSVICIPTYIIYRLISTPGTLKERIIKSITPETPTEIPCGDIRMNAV
T1 sequence (Q63380 1-617): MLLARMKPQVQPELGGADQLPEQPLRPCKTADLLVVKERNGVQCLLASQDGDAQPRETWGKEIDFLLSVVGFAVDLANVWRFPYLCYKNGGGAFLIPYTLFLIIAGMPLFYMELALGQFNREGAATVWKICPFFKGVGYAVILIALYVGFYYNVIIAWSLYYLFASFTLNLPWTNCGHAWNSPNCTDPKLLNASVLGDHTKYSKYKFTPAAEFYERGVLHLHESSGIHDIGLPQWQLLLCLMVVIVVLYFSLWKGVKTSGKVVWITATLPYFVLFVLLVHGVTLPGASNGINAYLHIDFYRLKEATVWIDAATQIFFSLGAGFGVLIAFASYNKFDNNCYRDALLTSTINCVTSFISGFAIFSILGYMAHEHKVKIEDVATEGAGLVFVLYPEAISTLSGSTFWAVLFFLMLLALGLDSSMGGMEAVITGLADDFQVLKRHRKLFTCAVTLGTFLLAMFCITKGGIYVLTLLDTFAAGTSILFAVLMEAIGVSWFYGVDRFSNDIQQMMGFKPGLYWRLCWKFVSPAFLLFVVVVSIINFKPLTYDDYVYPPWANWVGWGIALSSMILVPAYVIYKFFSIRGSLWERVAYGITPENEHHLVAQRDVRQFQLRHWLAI

The term inhibition denotes the relative decrease from the control value, in per cent. Higher therefore signals strong suppression. With `CN(C)CC1CC2(CCC1(O)c1ccccc1)OCCc1c2sc2ccccc12` (centres unmarked) [Example 7, 1,1-(2-(Dimethylaminomethyl)-3-hydroxy-3-phenyl-pentamethylene)-1,3,4,9-tetrahydro-pyrano[3,4-b]benzothiophene citrate], the inhibition at 10 µM in assay [1] is 59%; in assay [2] it was 88%. The corresponding values for `Cc1ccccc1C1(O)CCC2(CC1CN(C)C)NCCc1c2[nH]c2cc(F)ccc12` (centres unmarked) [Example 32, 1,1-(2-(Dimethylaminomethyl)-3-hydroxy-3-(2-methylphenyl)-pentamethylene)-7-fluoro-3,4-dihydro-1H-2,9-diazafluorene citrate] are 38% and 75%. In the case of `CSc1ccc(C2(O)CCC3(CC2CN(C)C)SCCc2c3[nH]c3ccccc23)cc1` (centres unmarked) [Example 23, 1,1-(2-(Dimethylaminomethyl)-3-hydroxy-3-(4-methylthiophenyl)-pentamethylene)-1,3,4,9-tetrahydro-2-thia-9-aza-fluorene sesquicitrate], the inhibition at 10 µM in assay [2] came out at 50%.

`CSc1ccc(C2(O)CCC3(CC2CN(C)C)OCCc2c3[nH]c3ccccc23)cc1` (centres unmarked) [Example 20, 1,1-(2-(Dimethylaminomethyl)-3-hydroxy-3-(4-methylthiophenyl)-pentamethylene)-1,3,4,9-tetrahydro-pyrano[3,4-b]indole citrate] returned an inhibition at 10 µM in assay [2] of 58%.

For `CN(C)CC1CC2(CCC1(O)c1ccccc1)SCCc1c2[nH]c2ccccc12` (centres unmarked) [Example 9, 1,1-(2-(Dimethylaminomethyl)-3-hydroxy-3-phenyl-pentamethylene)-1,3,4,9-tetrahydro-2-thia-9-aza-fluorene citrate], at 10 µM the inhibition in assay [2] was 81%. `CSc1ccc(C2(O)CCC3(CC2CN(C)C)NCCc2c3[nH]c3ccccc23)cc1` (centres unmarked) [Example 26, 1,1-(2-(Dimethylaminomethyl)-3-hydroxy-3-(4-methylthiophenyl)-pentamethylene)-3,4-dihydro-1H-2,9-diazafluorene citrate] yielded an inhibition at 10 µM in assay [1] of 40%. Regarding `CN(C)CC1CC2(CCC1(O)c1cccc(F)c1)OCCc1c2sc2ccccc12` (centres unmarked) [Example 10, 1,1-(2-(Dimethylaminomethyl)-3-hydroxy-3-(3-fluorophenyl)-pentamethylene)-1,3,4,9-tetrahydro-pyrano[3,4-b]benzothiophene citrate], the inhibition at 10 µM in assay [1] worked out at 55%; in assay [2], 88%. In the case of `CN(C)CC1CC2(CCC1(O)c1ccc(C(F)(F)F)cc1)NCCc1c2[nH]c2cc(F)ccc12` (centres unmarked) [Example 33, 1,1-(2-(Dimethylaminomethyl)-3-hydroxy-3-(4-trifluoromethylphenyl)-pentamethylene)-7-fluoro-3,4-dihydro-1H-2,9-diazafluorene citrate], the inhibition at 10 µM came to 68% in assay [1] and 78% in assay [2]. In the same order, the values of `CN(C)CC1CC2(CCC1(O)c1cccc(F)c1)SCCc1c2[nH]c2ccccc12` (centres unmarked) [Example 14, 1,1-(2-(Dimethylaminomethyl)-3-hydroxy-3-(3-fluorophenyl)-pentamethylene)-1,3,4,9-tetrahydro-2-thia-9-aza-fluorene citrate] are 46% and 61%. Turning to `CN(C)CC1CC2(CCC1(O)c1ccc(C(F)(F)F)cc1)NCCc1c2[nH]c2ccccc12` (centres unmarked) [Example 15, 1,1-(2-(Dimethylaminomethyl)-3-hydroxy-3-(4-trifluoromethylphenyl)-pentamethylene)-3,4-dihydro-1H-2,9-diazafluorene dicitrate], the inhibition at 10 µM in assay [1] was found to be 76%; in assay [2], 83%. In the same order, the values of `Cc1ccccc1C1(O)CCC2(CC1CN(C)C)SCCc1c2[nH]c2ccccc12` (centres unmarked) [Example 24, 1,1-(2-(Dimethylaminomethyl)-3-hydroxy-3-(2-methylphenyl)-pentamethylene)-1,3,4,9-tetrahydro-2-thia-9-aza-fluorene citrate] are 42% and 75%.

Take `COc1ccc2[nH]c3c(c2c1)CCOC31CCC(O)(c2ccc(SC)cc2)C(CN(C)C)C1` (centres unmarked) [Example 18, 1,1-(2-(Dimethylaminomethyl)-3-hydroxy-3-(4-methylthiophenyl)-pentamethylene)-1,3,4,9-tetrahydro-6-methoxy-pyrano[3,4-b]indole citrate]: the inhibition at 10 µM in assay [1] was 41%.

On to `COc1ccc2[nH]c3c(c2c1)CCNC31CCC(O)(c2ccccc2)C(CN(C)C)C1` (centres unmarked) [Example 17, 1,1-(2-(Dimethylaminomethyl)-3-hydroxy-3-phenyl-pentamethylene)-3,4-dihydro-6-methoxy-1H-2,9-diazafluorene citrate], for which, in assay [2], the inhibition at 10 µM came to 57%. Turning to `COc1ccc2[nH]c3c(c2c1)CCNC31CCC(O)(c2cccc(F)c2)C(CN(C)C)C1` (centres unmarked) [Example 21, 1,1-(2-(Dimethylaminomethyl)-3-hydroxy-3-(3-fluorophenyl)-pentamethylene)-3,4-dihydro-6-methoxy-1H-2,9-diazafluorene citrate], the inhibition at 10 µM stood at 44% in assay [1] and 57% in assay [2]. The corresponding values for `CN(C)CC1CC2(CCC1(O)c1cccc(F)c1)NCCc1c2[nH]c2ccccc12` (centres unmarked) [Example 3, 1,1-(2-(Dimethylaminomethyl)-3-hydroxy-3-(3-fluorophenyl)-pentamethylene)-3,4-dihydro-1H-2,9-diazafluorene citrate] are 48% and 75%. With `Cc1ccccc1C1(O)CCC2(CC1CN(C)C)OCCc1c2sc2ccccc12` (centres unmarked) [Example 11, 1,1-(2-(Dimethylaminomethyl)-3-hydroxy-3-(2-methylphenyl)-pentamethylene)-1,3,4,9-tetrahydro-pyrano[3,4-b]benzothiophene citrate], the inhibition at 10 µM came to 43% in assay [1] and 85% in assay [2].

Turning to `COc1ccc2[nH]c3c(c2c1)CCNC31CCC(O)(c2ccc(C(F)(F)F)cc2)C(CN(C)C)C1` (centres unmarked) [Example 22, 1,1-(2-(Dimethylaminomethyl)-3-hydroxy-3-(4-trifluoromethylphenyl)-pentamethylene)-3,4-dihydro-6-methoxy-1H-2,9-diazafluorene citrate], testing at 10 µM in assay [2] gave an inhibition of 47%. With `CN(C)CC1CC2(CCC1(O)c1ccccc1)NCCc1c2[nH]c2cc(F)ccc12` (centres unmarked) [Example 35, 1,1-(2-(Dimethylaminomethyl)-3-hydroxy-3-phenyl-pentamethylene)-7-fluoro-3,4-dihydro-1H-2,9-diazafluorene dicitrate], in assay [2], the inhibition at 10 µM was found to be 67%.

As to `CSc1ccc(C2(O)CCC3(CC2CN(C)C)OCCc2c3sc3ccccc23)cc1` (centres unmarked) [Example 31, 1,1-(2-(dimethylaminomethyl)-3-hydroxy-3-(4-methylthiophenyl)-pentamethylene)-1,3,4,9-tetrahydro-pyrano[3,4-b]benzothiophene citrate], the inhibition at 10 µM was found to be 60% in assay [1] and 82% in assay [2]. In the same order, the values of `CN(C)CC1CC2(CCC1(O)c1ccc(C(F)(F)F)cc1)OCCc1c2oc2ccccc12` (centres unmarked) [Example 13, 1,1-(2-(Dimethylaminomethyl)-3-hydroxy-3-(4-trifluoromethylphenyl)-pentamethylene)-1,3,4,9-tetrahydro-pyrano[3,4-b]benzofuran citrate] are 46% and 60%. The corresponding values for `CN(C)CC1CC2(CCC1(O)c1ccc(C(F)(F)F)cc1)OCCc1c2sc2ccccc12` (centres unmarked) [Example 29, 1,1-(2-(Dimethylaminomethyl)-3-hydroxy-3-(4-trifluoromethylphenyl)-pentamethylene)-1,3,4,9-tetrahydro-pyrano[3,4-b]benzothiophene citrate] are 35% and 47%.

In assay [2], `Cc1ccccc1C1(O)CCC2(CC1CN(C)C)NCCc1c2[nH]c2ccccc12` (centres unmarked) [Example 6, 1,1-(2-(Dimethylaminomethyl)-3-hydroxy-3-(2-methylphenyl)-pentamethylene)-3,4-dihydro-1H-2,9-diazafluorene citrate] gave an inhibition at 10 µM of 69%. Consider `CSc1ccc(C2(O)CCC3(CC2CN(C)C)OCCc2c3oc3ccccc23)cc1` (centres unmarked) [Example 30, 1,1-(2-(dimethylaminomethyl)-3-hydroxy-3-(4-methylthiophenyl)-pentamethylene)-1,3,4,9-tetrahydro-pyrano[3,4-b]benzofuran citrate], for which the inhibition at 10 µM in assay [1] came out at 37%; in assay [2], 83%. Compound `CN(C)CC1CC2(CCC1(O)c1cccc(F)c1)NCCc1c2[nH]c2cc(F)ccc12` (centres unmarked) [Example 16, 1,1-(2-(Dimethylaminomethyl)-3-hydroxy-3-(3-fluorophenyl)-pentamethylene)-7-fluoro-3,4-dihydro-1H-2,9-diazafluorene sesquicitrate] displayed an inhibition at 10 µM in assay [2] of 72%.
